Columns and labels:
Type in all cases: in vivo, human
[1] = test system: subjects with EoE (safety analysis set); assay: Clinical trial of FP ODT: treatment-emergent adverse events
Method: (§1) Subjects that participated in Part 1 studies were randomized and administered a treatment selected from: • (a) 1.5 mg HS: Placebo 30 minutes after breakfast and 1.5 mg HS (at bedtime); • (b) 1.5 mg BID: 1.5 mg 30 minutes after breakfast and at bedtime; total daily dose of 3 mg; • (c) 3 mg HS: Placebo 30 minutes after breakfast and 3 mg at bedtime; and • (d) 3 mg BID: 3.0 mg 30 minutes after breakfast and at bedtime; total daily dose of 6 mg.
Patient Population: 105 subjects received at least 1 dose of study drug in Part 1 of the study safety analysis set (SAF population), and 92 subjects ([…]) of those subjects completed Week 14. […] Subjects were classified according to their randomized treatment.
Safety endpoints were measured such as Frequency of treatment-emergent adverse event (TEAEs); TEAEs leading to discontinuation; Treatment-emergent serious adverse events (SAEs); Percentage of subjects with serum cortisol level ≤5 μg/dL (≤138 nmol/L) or abnormal adrenocorticotropic hormone (ACTH) stimulation test (serum cortisol <16 μg/dL [≤440 nmol/L] at 60 minutes); The number of subjects discontinuing for HPA axis suppression will be recorded; and frequency of oral and esophageal candidiasis.

[2] = test system: subjects with strictures and/or rings and EoE; assay: Clinical trial of FP ODT: histologic response (peak eosinophils/HPF in oesophageal biopsies); details: subgroup with strictures and/or Grade 2 rings at baseline, Week 12
Method: (§2) A clinical trial was performed to evaluate the effect of an orally disintegrating tablet (“ODT”) comprising fluticasone propionate (FP). A randomised, double-blind, placebo-controlled, multicentre, dose-ranging, and maintenance study of FP in subjects (>18 and <75 years of age) with strictures and/or rings and EoE. The trial examined four doses of FP to define the exposure-response of FP and the minimum effective dose to minimize significant hypothalamic-pituitary-adrenal (HPA) axis effects. The study (as shown in FIG. 1) was designed as follows. • (a) Screening: Patients with a confirmed diagnosis or presumptive diagnosis of EoE (including identifying strictures and/or rings) were selected for the study. An EoE diagnosis was confirmed by symptoms, histology, and historical documentation of failed treatment on >8 weeks of high-dose proton pump inhibitor (PPI). A high-dose PPI was defined as administration of a total dose of 20 to 40 mg of a marketed PPI once or twice daily.
as §1
During Part 1 (Induction, Day 1 to Week 14), subjects received their randomized treatment for 14 weeks. At Week 12, the subjects underwent a response assessment, including an oesophagogastroduodenoscopy (EGD) to assess endoscopic and histologic status. Histologic responders and non-responders (at Week 12) entered Part 2.
The primary endpoint was the histologic responder rate at Week 12 of Part 1, […] 5 to 6 biopsies from the proximal and distal oesophagus (approximately 3 each) where the HPF area was […] (40 magnification lens with a 22 mm ocular).

[3] = test system: subjects with strictures and/or rings and EoE; assay: Clinical trial of FP ODT: dysphagia episodes (symptom response); details: subgroup with strictures and/or Grade 2 rings at baseline, Week 12
Method: as §2
Subjects that participated in Part 1 studies were randomized and administered a treatment selected from: • (a) 1.5 mg HS: Placebo 30 minutes after breakfast and 1.5 mg HS (at bedtime); • (b) 1.5 mg BID: 1.5 mg 30 minutes after breakfast and at bedtime; total daily dose of 3 mg; • (c) 3 mg HS: Placebo 30 minutes after breakfast and 3 mg at bedtime; and • (d) 3 mg BID: 3.0 mg 30 minutes after breakfast and at bedtime; total daily dose of 6 mg. […]

[4] = all FP dosing groups, TOTAL (n = 43)

S-(fluoromethyl)-6α,9-difluoro-11β, 17-dihydroxy-16α-methyl-3-oxoandrosta-1, 4-diene-17β-carbothioate, 17-propanoate [FP]
At least 1 TEAE, (%) ([1]; FP 1.5 mg BID (n = 23)): (74) % | Maximum severity of TEAE: Mild, (%) ([1]; FP 1.5 mg BID (n = 23)): (61) % | Maximum severity of TEAE: Moderate, (%) ([1]; FP 1.5 mg BID (n = 23)): (13) % | TEAE leading to study discontinuation, (%) ([1]; FP 1.5 mg BID (n = 23)): (9) % | TEAE of special interest, (%) ([1]; FP 1.5 mg BID (n = 23)): (13) % | TEAE related to study drug, (%) ([1]; FP 1.5 mg BID (n = 23)): (22) % | At least 1 TEAE, (%) ([1]; FP 1.5 mg HS (n = 21)): (62) % | Maximum severity of TEAE: Mild, (%) ([1]; FP 1.5 mg HS (n = 21)): (52) % | Maximum severity of TEAE: Moderate, (%) ([1]; FP 1.5 mg HS (n = 21)): (5) % | Maximum severity of TEAE: Severe, (%) ([1]; FP 1.5 mg HS (n = 21)): (5) % | TEAE related to study drug, (%) ([1]; FP 1.5 mg HS (n = 21)): (10) % | At least 1 TEAE, (%) ([1]; FP 3 mg BID (n = 20)): (85) % | Maximum severity of TEAE: Mild, (%) ([1]; FP 3 mg BID (n = 20)): (60) % | Maximum severity of TEAE: Moderate, (%) ([1]; FP 3 mg BID (n = 20)): (25) % | TEAE leading to study discontinuation, (%) ([1]; FP 3 mg BID (n = 20)): (5) % | TEAE of special interest, (%) ([1]; FP 3 mg BID (n = 20)): (35) % | TEAE related to study drug, (%) ([1]; FP 3 mg BID (n = 20)): (50) % | At least 1 TEAE, (%) ([1]; FP 3 mg HS (n = 21)): (76) % | Maximum severity of TEAE: Mild, (%) ([1]; FP 3 mg HS (n = 21)): (29) % | Maximum severity of TEAE: Moderate, (%) ([1]; FP 3 mg HS (n = 21)): (43) % | Maximum severity of TEAE: Severe, (%) ([1]; FP 3 mg HS (n = 21)): (5) % | Serious TEAE, (%) ([1]; FP 3 mg HS (n = 21)): (5) % | TEAE of special interest, (%) ([1]; FP 3 mg HS (n = 21)): (5) % | TEAE related to study drug, (%) ([1]; FP 3 mg HS (n = 21)): (29) % | At least 1 TEAE, (%) ([1]; Total FP (n = 85)): 74% | Maximum severity of TEAE: Mild, (%) ([1]; Total FP (n = 85)): 51% | Maximum severity of TEAE: Moderate, (%) ([1]; Total FP (n = 85)): 21% | Maximum severity of TEAE: Severe, (%) ([1]; Total FP (n = 85)): 2 (2) % | Serious TEAE, (%) ([1]; Total FP (n = 85)): 1 (1) % | TEAE leading to study discontinuation, (%) ([1]; Total FP (n = 85)): 4% | TEAE of special interest, (%) ([1]; Total FP (n = 85)): 13% | TEAE related to study drug, (%) ([1]; Total FP (n = 85)): 25% | Histology Responder Rate, % ([2]; FP 1.5 mg BID (n = 12)): 100% | Histology Responder Rate, % ([2]; FP 1.5 mg HS (n = 13)): 54% | Histology Responder Rate, % ([2]; FP 3 mg BID (n = 7)): 86% | Histology Responder Rate, % ([2]; FP 3 mg HS (n = 11)): 82% | Histology Responder Rate, % [2, 4]: 79% | Symptoms Responder Rate (≤50% reduction dysphagia episodes), % ([3]; FP 1.5 mg BID (n = 12)): 42% | Symptoms Responder Rate (≤50% reduction dysphagia episodes), % ([3]; FP 1.5 mg HS (n = 13)): 77% | Symptoms Responder Rate (≤50% reduction dysphagia episodes), % ([3]; FP 3 mg BID (n = 7)): 57% | Symptoms Responder Rate (≤50% reduction dysphagia episodes), % ([3]; FP 3 mg HS (n = 11)): 73% | Symptoms Responder Rate (≤50% reduction dysphagia episodes), % [3, 4]: 63%

From patent US20240207288A1, “METHODS OF TREATING ESOPHAGEAL STRICTURES” (Ellodi Pharmaceuticals, L.P., priority 2021, published 2024)
